Measured values taken from DBAASP.
Values after ≈ are worked out from the molar mass of the structure shown.

Legend:
Assay in all cases: ≥ marks a high value that may be exact or a test limit, other limits are often not marked, values filed in µg/mL are converted to µM
[1] = test system: Acinetobacter baumannii Q12-0809
[2] = test system: Acinetobacter baumannii Q13-0717
[3] = test system: Campylobacter jejuni NCTC 11351
Campylobacter jejuni = test system: Campylobacter jejuni
[4] = test system: Enterococcus faecalis JH-2-2
Escherichia coli K-12 = test system: Escherichia coli K-12
Escherichia coli = test system: Escherichia coli
[5] = test system: Klebsiella pneumoniae ATCC 700603
[6] = test system: Klebsiella pneumoniae NCTC 13442
[7] = test system: Klebsiella pneumoniae Q14-0095
[8] = test system: Klebsiella pneumoniae Q14-0285
[9] = test system: Listeria monocytogenes NCTC 11994
[10] = test system: Pseudomonas aeruginosa ATCC 27853
[11] = test system: Pseudomonas aeruginosa PAO1
[12] = test system: Pseudomonas aeruginosa Q12-0535
[13] = test system: Pseudomonas aeruginosa Q14-0208
[14] = test system: Pseudomonas aeruginosa Q14-0890
[15] = test system: Salmonella typhimurium SL1344
[16] = test system: Staphylococcus aureus ATCC 29213
[17] = test system: Staphylococcus aureus MRSA-15
[18] = test system: Staphylococcus aureus NCTC 12493
[19] = test system: Staphylococcus aureus Q14-0320
[20] = test system: Staphylococcus aureus Q14-0325
[21] = test system: Staphylococcus aureus RN4220
[22] = test system: Bacillus cereus ATCC 14579
[23] = test system: Bacillus subtilis ATCC 23857
[24] = test system: Candida albicans ATCC 90028
[25] = test system: Cryptococcus neoformans ATCC 28957
[26] = test system: Escherichia coli ATCC 25922
[27] = test system: Fusarium oxysporum f.sp. vasinfectum
Fusarium oxysporum = test system: Fusarium oxysporum
Fusarium solani = test system: Fusarium solani
[28] = test system: Pectobacterium carotovorum
[29] = test system: Pseudomonas syringae pv. tabaci
Ramulariopsis gossypii = test system: Ramulariopsis gossypii
Rhizoctonia solani = test system: Rhizoctonia solani
[30] = test system: Staphylococcus aureus ATCC 25923
Trichoderma asperellum = test system: Trichoderma asperellum
[31] = test system: Xanthomonas campestris pv. citri
[32] = test system: Candida glabrata ATCC 90030
Candida krusei ATCC 6258 = test system: Candida krusei ATCC 6258
[33] = test system: Enterobacter cloacae ATCC 13047
[34] = test system: Enterococcus faecalis ATCC 4028
[35] = test system: Staphylococcus epidermidis ATCC 12228
[36] = test system: Bacillus cereus ATCC 11778
[37] = test system: Salmonella enterica subsp. enterica serovar Enteritidis ATCC 13076
[38] = test system: Serratia marcescens ATCC 21202
[39] = test system: Streptococcus pyogenes ATCC 19615
[40] = test system: Listeria monocytogenes ATCC 19112
[41] = test system: Pseudomonas aeruginosa ATCC 15442

`CC(C)C[C@H](NC(=O)[C@H](CO)NC(=O)[C@H](CO)NC(=O)[C@H](CO)NC(=O)[C@H](CCCN=C(N)N)NC(=O)[C@@H](NC(=O)[C@H](CCCN=C(N)N)NC(=O)[C@H](Cc1c[nH]c2ccccc12)NC(=O)[C@H](CS)NC(=O)[C@H](CC(N)=O)NC(=O)[C@H](CCCN=C(N)N)NC(=O)[C@H](Cc1ccccc1)NC(=O)[C@H](C)NC(=O)[C@H](CCCCN)NC(=O)[C@H](Cc1c[nH]c2ccccc12)NC(=O)[C@H](CCCN=C(N)N)NC(=O)[C@H](Cc1c[nH]c2ccccc12)NC(=O)[C@H](C)N)C(C)C)C(=O)O` [AWRWKAFRNCWRVRSSSL] was tested, and the MIC [1] was 13.9 µM (≈ 32 µg/mL), the MIC [2] was 27.7 µM (≈ 64 µg/mL) and the MIC [3] was no less than 55.4 µM. The MIC (Campylobacter jejuni) was no less than 55.4 µM, the MIC [4] was 27.7 µM (≈ 64 µg/mL) and the MIC (Escherichia coli K-12) was 27.7 µM (≈ 64 µg/mL). It also gave an MIC (Escherichia coli) greater than 55.4 µM, an MIC [5] of 55.4 µM (≈ 128 µg/mL) and an MIC [6] of no less than 55.4 µM. For the same compound, the MIC [7] was no less than 55.4 µM, the MIC [8] was no less than 55.4 µM and the MIC [9] was 27.7 µM (≈ 64 µg/mL). For the same compound, the MIC [10] was greater than 55.4 µM, the MIC [11] was 13.9 µM (≈ 32 µg/mL) and the MIC [12] was no less than 55.4 µM. The MIC [13] was 27.7 µM (≈ 64 µg/mL), the MIC [14] was 13.9 µM (≈ 32 µg/mL) and the MIC [15] was 13.9 µM (≈ 32 µg/mL). For the same compound, the MIC [16] was 55.4 µM (≈ 128 µg/mL), the MIC [17] was 27.7 µM (≈ 64 µg/mL) and the MIC [18] was 13.9 µM (≈ 32 µg/mL). The MIC [19] was no less than 55.4 µM, the MIC [20] was no less than 55.4 µM and the MIC [21] was 27.7 µM (≈ 64 µg/mL).
With `CC[C@H](C)[C@H](NC(=O)[C@H](Cc1cnc[nH]1)NC(=O)CNC(=O)[C@H](Cc1ccccc1)NC(=O)[C@@H](N)Cc1ccccc1)C(=O)N[C@@H](Cc1c[nH]c2ccccc12)C(=O)N[C@@H](Cc1cnc[nH]1)C(=O)NCC(=O)N[C@@H](C)C(=O)N[C@@H](CCCN=C(N)N)C(=O)N[C@H](C(=O)N[C@@H](CC(C)C)C(=O)N[C@@H](Cc1ccccc1)C(=O)N[C@@H](CCCN=C(N)N)C(=O)N[C@@H](CC(=O)O)C(=O)N[C@H](C(=O)N[C@@H](Cc1ccccc1)C(=O)N[C@@H](C)C(N)=O)C(C)C)[C@@H](C)O` [FFGHIWHGARTLFRDVFA] the MIC [22] was no less than 64 µM, the MIC [23] was 3.33 µM (≈ 7.25 µg/mL) and the MIC [24] was no less than 32 µM. For the same compound, the MIC [25] was no less than 32 µM, the MIC [26] was 8 µM (≈ 17.4 µg/mL) and the MIC [27] was 13.3 µM (≈ 29 µg/mL). For the same compound, the MIC (Fusarium oxysporum) was 16 µM (≈ 34.8 µg/mL), the MIC (Fusarium solani) was 8 µM (≈ 17.4 µg/mL) and the MIC [28] was no less than 32 µM. It also gave an MIC [29] of 4 µM (≈ 8.71 µg/mL), an MIC (Ramulariopsis gossypii) of 16 µM (≈ 34.8 µg/mL) and an MIC (Rhizoctonia solani) of no less than 32 µM. The MIC [30] was 8 µM (≈ 17.4 µg/mL), the MIC (Trichoderma asperellum) was 8 µM (≈ 17.4 µg/mL) and the MIC [31] was no less than 32 µM.
`CC[C@H](C)[C@H](NC(=O)[C@H](CC(C)C)NC(=O)CNC(=O)[C@H](CCCCN)NC(=O)[C@@H](NC(=O)[C@H](CC(C)C)NC(=O)[C@H](CCCCN)NC(=O)[C@@H]1CCCN1C(=O)[C@@H](NC(=O)[C@H](CC(C)C)NC(=O)[C@H](CO)NC(=O)[C@H](Cc1ccccc1)NC(=O)[C@@H](N)Cc1ccccc1)[C@@H](C)CC)C(C)C)C(=O)N[C@@H](CO)C(=O)N[C@@H](C)C(=O)N[C@@H](Cc1ccccc1)C(=O)N[C@@H](CCCCN)C(N)=O` [FFSLIPKLVKGLISAFK] showed an MIC [24] of 9.38 µM (≈ 17.9 µg/mL), an MIC [32] of 18.8 µM (≈ 35.8 µg/mL) and an MIC (Candida krusei ATCC 6258) of no less than 37.5 µM. The MIC [33] was 18.8 µM (≈ 35.8 µg/mL), the MIC [34] was 1.17 µM (≈ 2.23 µg/mL) and the MIC [26] was 4.69 µM (≈ 8.95 µg/mL). The MIC [10] was 9.38 µM (≈ 17.9 µg/mL), the MIC [16] was 2.34 µM (≈ 4.46 µg/mL) and the MIC [35] was 1.17 µM (≈ 2.23 µg/mL).
Work on `CC[C@H](C)[C@H](N)C(=O)N[C@H](C(=O)N1CCC[C@H]1C(=O)N[C@@H](CC(C)C)C(=O)N1CCC[C@H]1C(=O)N[C@@H](CC(C)C)C(=O)NCC(=O)N[C@@H](Cc1ccc(O)cc1)C(=O)N[C@@H](Cc1ccccc1)C(=O)N[C@@H](C)C(=O)N[C@@H](CCCCN)C(=O)N[C@@H](CCCCN)C(=O)N[C@@H](CCCCN)C(=O)N[C@@H](CCCCN)C(=O)N[C@@H](CCCCN)C(=O)N[C@@H](CCCCN)C(=O)N[C@@H](CC(=O)O)C(=O)N1CCC[C@H]1C(=O)N[C@H](C(=O)N1CCC[C@H]1C(=O)N[C@@H](CC(C)C)C(=O)N[C@@H](CC(=O)O)C(=O)N[C@@H](CCC(N)=O)C(=O)O)C(C)C)[C@@H](C)CC` [IIPLPLGYFAKKKKKKDPVPLDQ] yielded an MIC [36] of no less than 37.9 µM, an MIC [26] greater than 37.9 µM and an MIC [5] greater than 37.9 µM. For the same compound, the MIC [10] was greater than 37.9 µM, the MIC [37] was no less than 37.9 µM and the MIC [38] was no less than 37.9 µM. For the same compound, the MIC [16] was greater than 37.9 µM and the MIC [39] was no less than 37.9 µM.
`CC[C@H](C)[C@H](NC(=O)[C@H](CO)NC(=O)[C@@H](N)CC(C)C)C(=O)N[C@@H](CCCN=C(N)N)C(=O)N[C@@H](CCCN=C(N)N)C(=O)N[C@@H](CC(C)C)C(=O)N[C@@H](CC(C)C)C(=O)N[C@@H](C)C(=O)N[C@@H](C)C(=O)NCC(=O)N[C@H](C(=O)N[C@@H](CC(C)C)C(=O)N[C@@H](CCCCN)C(=O)N[C@@H](CCC(N)=O)C(=O)N[C@H](C(=O)N[C@@H](CCCCN)C(=O)NCC(=O)N[C@H](C(=O)NCC(=O)N[C@@H](C)C(=O)O)C(C)C)[C@@H](C)O)C(C)C` [LSIRRLLAAGVLKQTKGVGA] showed an MIC [40] of 31.2 µM (≈ 64 µg/mL) and an MIC [41] of 13 µM (≈ 26.7 µg/mL).
